Experimental data published in publication PMC9631757 (2022).

Test system: CBZ aptamer (DNA, aptamer) CGAGGCTCTCGGGACGACGGGGCACGGGCCTCTGGGTCGGCATGGCCCGTCGTCCCGCCTTTAGGATTTACAG
Settings: upper bound only; assay and buffer not stated

- Kd: < 12 nM
SMILES: NC(=O)N1c2ccccc2C=Cc2ccccc21
